Source: patent publication US7423020B2, “Treatment of mood disorders by administration of SMR1” (Institut Pasteur, priority 2001, dated 2008)
Where a SMILES comes first, the peptide text is derived from it.

Columns and labels:
NEP [1] = target: T1, NEP (Rattus norvegicus, UniProt P07861); experiment: 3H-Substance P hydrolysis by rat spinal cord slices; type: biochemical; conditions: 25° C., over 30 min incubation, read-out: inhibition of Substance P degradation
T1 construct: incubations of membrane and fresh tissue slice preparations from nervous tissues; from tissue; host or cells: rat spinal cord (dorsal zone), fresh slices or 100 000 x g membrane fraction
T1 sequence (P07861 1-750): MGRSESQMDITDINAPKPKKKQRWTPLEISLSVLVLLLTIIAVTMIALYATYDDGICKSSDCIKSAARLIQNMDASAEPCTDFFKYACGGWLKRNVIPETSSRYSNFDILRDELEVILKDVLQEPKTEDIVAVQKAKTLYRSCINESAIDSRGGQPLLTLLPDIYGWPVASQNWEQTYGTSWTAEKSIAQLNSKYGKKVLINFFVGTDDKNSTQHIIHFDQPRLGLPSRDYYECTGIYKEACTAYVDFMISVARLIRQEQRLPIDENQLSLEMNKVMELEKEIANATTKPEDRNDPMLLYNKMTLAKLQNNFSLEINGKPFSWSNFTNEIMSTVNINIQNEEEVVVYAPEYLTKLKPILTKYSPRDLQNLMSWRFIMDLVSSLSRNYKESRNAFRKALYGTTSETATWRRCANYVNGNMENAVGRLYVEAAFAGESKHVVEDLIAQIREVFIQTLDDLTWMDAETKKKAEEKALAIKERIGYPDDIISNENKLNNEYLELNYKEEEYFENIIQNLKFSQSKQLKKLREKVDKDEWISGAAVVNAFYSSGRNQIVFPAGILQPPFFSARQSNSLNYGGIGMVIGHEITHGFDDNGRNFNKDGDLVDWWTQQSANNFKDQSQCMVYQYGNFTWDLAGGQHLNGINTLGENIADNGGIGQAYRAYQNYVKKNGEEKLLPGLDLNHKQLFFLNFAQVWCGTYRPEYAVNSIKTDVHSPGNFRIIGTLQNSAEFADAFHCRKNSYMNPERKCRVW
Description: (§1) For the experiments of analysis of the NEP peptidase activity, an ex vivo model using incubations of membrane and fresh tissue slice preparations from nervous tissues that are known to be appropriate for exploring NEP peptidase activity: i.e. the dorsal zone of rat spinal cord, was first developed. […] (NEN, 12.5-25 nM) were used.
(§2) The objective was to measure the NEP-specific endoproteolysis of these substrates.
The C-18 Sep-Pak cartridges (Waters) were used to analyze the hydrolysis of the radiolabeled peptides: they separate compounds according to their differences in polarity. This solid-phase extraction procedure allows isolating the substrate from its metabolites, since the hydrophobic character of the peptide metabolites is reduced or even lost compared to the intact peptide substrate.
The radioactivity of eluted and isolated compounds is determined by liquid scintillation spectrometry.

NEP [2] = target: T1, NEP; experiment: Met-enkephalin degradation by rat spinal cord slices, RIA assay; type: biochemical; conditions: 10 μM; fresh spinal cord slices; 20 min at 25° C.; 10 μM Met-enkephalin
Description: as §1, §2

- inhibition at 10 µM (NEP [1]): 75%
- protection of Met-enkephalin from degradation (RIA) (NEP [2]): 96%
Compound: N=C(N)NCCC[C@H](NC(=O)[C@@H]1CCCN1C(=O)[C@H](CC(N)=O)NC(=O)[C@H](Cc1c[nH]cn1)NC(=O)[C@@H](N)CCC(N)=O)C(=O)O [SMR1-QHNPR, QHNPR] (H-QHNPR-OH; N-terminus and C-terminus assumed)
